Data as given in ChEMBL document CHEMBL1201862, “PubChem BioAssay data set” (2004).
“And” between values parts separate entries of the source, which are not always exact repeats. Equal entries are not always repeated.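 How tested: cells in 96-well plates exposed to compound for 48 hours at five concentrations. GI50 = concentration required for 50% inhibition of growth.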 The source made the active and inactive calls. Rule as the data show it: active = GI50 up to about 1.1 µM and inactive = higher.

How the values were obtained:
Assay in all cases: inhibition of tumour cell growth, NCI panel, 48 h
A549 = tested on: A549
ACHN = tested on: ACHN
BT-549 = tested on: BT-549
EKVX = tested on: EKVX
HCC 2998 = tested on: HCC 2998
HCT-15 = tested on: HCT-15
HL-60 = tested on: HL-60
HT-29 = tested on: HT-29
IGROV-1 = tested on: IGROV-1
MDA-N = tested on: MDA-N
SF-268 = tested on: SF-268
SK-MEL-28 = tested on: SK-MEL-28
SK-MEL-5 = tested on: SK-MEL-5
SK-OV-3 = tested on: SK-OV-3
SN12C = tested on: SN12C
COLO 205 = tested on: COLO 205
NCI-H522 = tested on: NCI-H522
OVCAR-4 = tested on: OVCAR-4
RPMI-8226 = tested on: RPMI-8226

Measured: GI50

CC1(C)OC[C@H](COCOP2(=O)Oc3ccc4ccccc4c3-c3c(ccc4ccccc34)O2)O1
15.3 µM: HCT-15
inactive: A549 21.5 µM | ACHN 18 µM | BT-549 16.6 µM | EKVX > 10 µM | HCC 2998 16.9 µM | HL-60 17.1 µM | HT-29 16.4 µM | IGROV-1 23 µM | MDA-N 13.5 µM | SF-268 16 µM | SK-MEL-28 13.3 µM | SK-MEL-5 24.4 µM | SK-OV-3 23.8 µM | SN12C 16.4 µM

COc1cccc(NCC(=O)Nn2c(-c3ccccc3)nc3ccccc3c2=O)c1
> 100 µM: HCT-15
inactive: A549 > 100 µM | ACHN > 100 µM | BT-549 > 100 µM | COLO 205 > 100 µM | EKVX 91.6 µM | HCC 2998 > 100 µM | HL-60 > 100 µM | HT-29 > 100 µM | IGROV-1 64.4 µM | NCI-H522 > 100 µM | OVCAR-4 > 100 µM | RPMI-8226 > 100 µM | SF-268 > 100 µM | SK-MEL-28 > 100 µM | SK-MEL-5 57.7 µM | SK-OV-3 > 100 µM | SN12C > 100 µM

CC1CSc2nc3nc(S)nc-3c(O)n2C1 (configuration not stated)
> 100 µM: HCT-15
inactive: A549 > 100 µM | ACHN > 100 µM | BT-549 > 100 µM | COLO 205 > 100 µM | EKVX > 100 µM | HCC 2998 > 100 µM | HL-60 > 100 µM | IGROV-1 > 100 µM | OVCAR-4 > 100 µM | RPMI-8226 > 100 µM | SF-268 > 100 µM | SK-MEL-28 > 100 µM | SK-MEL-5 > 100 µM | SK-OV-3 > 100 µM | SN12C > 100 µM

CC(C)C(C)/C=C\C(C)C1CCC2C3=CC=C4CC(O)CCC4(C)C3CCC21C (configuration not stated)
> 42.8 µM: HCT-15
inactive: A549 > 100 µM | ACHN > 42 µM | BT-549 > 50.4 µM | COLO 205 43.9 µM | EKVX > 39.4 µM | HL-60 32.6 µM | HT-29 33.3 µM | IGROV-1 31.4 µM | MDA-N > 46.2 µM | NCI-H522 38.6 µM | OVCAR-4 > 100 µM | RPMI-8226 29.3 µM | SF-268 > 42.7 µM | SK-MEL-28 > 41.7 µM | SK-MEL-5 23.8 µM | SK-OV-3 > 100 µM | SN12C > 42.1 µM

O=c1[nH]c2cc([N+](=O)[O-])c(N/N=C/c3ccc(Cl)cc3Cl)c([N+](=O)[O-])c2[nH]1
40.3 µM: HCT-15
inactive: A549 37.9 µM | ACHN 39.8 µM | BT-549 > 100 µM | COLO 205 > 100 µM | EKVX > 100 µM | HL-60 > 100 µM | HT-29 > 100 µM | IGROV-1 25.1 µM | MDA-N 7.48 µM | NCI-H522 31.1 µM | OVCAR-4 13.6 µM | RPMI-8226 33.8 µM | SF-268 75.3 µM | SK-MEL-28 > 100 µM | SK-MEL-5 > 100 µM | SK-OV-3 30.1 µM | SN12C 37.5 µM

CC1OC(OC2C(OC(=O)[C@]34CCC(C)(C)C[C@H]3C3=CC[C@@H]5[C@@]6(C)CC[C@H](OC7OC(CO)C(O)C(O)C7OC7OC(CO)C(O)C(O)C7O)C(C)(C)[C@@H]6CC[C@@]5(C)[C@]3(C)CC4)OCC(O)C2O)C(O)C(O)C1OC1OCC(O)C(OC2OCC(O)C(O)C2O)C1O (some centres not stated)
12.9 µM and 13 µM: HCT-15
inactive: A549 3.01 µM and 3.03 µM | ACHN 5.98 µM and 4.8 µM | BT-549 3.51 µM and 3.82 µM | COLO 205 1.78 µM and 2.43 µM | EKVX 2.44 µM and 2.97 µM | HCC 2998 2 µM and 1.76 µM | HT-29 3.02 µM and 3.33 µM | IGROV-1 11.9 µM and 8.38 µM | MDA-N 1.64 µM and 1.88 µM | NCI-H522 2.65 µM and 2.49 µM | OVCAR-4 7.19 µM and 5.41 µM | RPMI-8226 3.98 µM and 4.43 µM | SF-268 6.03 µM and 5.07 µM | SK-MEL-28 2.09 µM and 2.18 µM | SK-MEL-5 2.82 µM and 3.24 µM | SK-OV-3 12.6 µM and 13.1 µM | SN12C 2.15 µM

COc1ccccc1[C@@H]1CCC2CC[C@@H](c3ccccc3OC)[N+]21Cc1ccccc1 (some centres not stated)
active: BT-549 0.893 µM | COLO 205 0.44 µM | EKVX 0.223 µM | HL-60 0.478 µM | HT-29 0.847 µM | MDA-N 0.632 µM | RPMI-8226 0.211 µM | SK-MEL-5 0.36 µM
3.76 µM: HCT-15
inactive: A549 1.99 µM | ACHN 3.3 µM | IGROV-1 1.34 µM | NCI-H522 1.33 µM | OVCAR-4 1.64 µM | SF-268 3.64 µM | SK-MEL-28 3.56 µM | SK-OV-3 2.84 µM | SN12C 2.54 µM

O=C(NCCC1CN(S(=O)(=O)C(F)(F)F)c2ccccc21)OCc1ccccc1 (configuration not stated)
inactive: A549 > 100 µM | ACHN > 100 µM | BT-549 > 100 µM | COLO 205 > 100 µM | EKVX > 100 µM | HCC 2998 > 100 µM | HT-29 > 100 µM | IGROV-1 > 100 µM | NCI-H522 57 µM | OVCAR-4 > 100 µM | RPMI-8226 > 100 µM | SF-268 > 100 µM | SK-MEL-28 > 100 µM | SK-MEL-5 > 100 µM | SK-OV-3 > 100 µM
> 100 µM: HCT-15
